Test results published in ChEMBL document CHEMBL3885861, “Open TG-GATES”.

Organism: Rattus norvegicus
Experiment: Open TG-GATES - Regimen: Single
Format: toxicity, organism-based, Sprague-Dawley
Set-up: regimen Single, gender Male, age 6 weeks
Settings: in vivo, po, route gavage; for APTT / Bas / Eos / Fbg / Hb / Ht / Lym / MCH / MCHC / MCV / Mono / Neu / PT / Plat / RBC / Ret / WBC: tissue Blood; for KIDNEY_L / KIDNEY_R / KIDNEY_TOTAL: tissue Kidney; for LIVER: tissue Liver; for A/G / ALP / ALT / AST / BUN / CRE / Ca / Cl / DBIL / GLC / IP / K / LDH / Na / PL / RALB / TBIL / TC / TG / TP / gamma-GTP: tissue Plasma
[1] = 0 mg/kg, 3 h, dose level Control
[2] = 0 mg/kg, 6 h, dose level Control
[3] = 0 mg/kg, 9 h, dose level Control
[4] = 0 mg/kg, 24 h, dose level Control

## CCOC(=O)[C@H](CCc1ccccc1)N[C@@H](C)C(=O)N1CCC[C@H]1C(=O)O
[1]
  TERMINAL_BW: 219.5 g
  APTT: 16.4 s
  Bas: 0%
  Eos: 1%
  Fbg: 205.6 mg/dL
  Hb: 13.1 g/dL
  Ht: 39.6%
  Lym: 78.2%
  MCH: 21.9 pg
  MCHC: 33%
  MCV: 66.3 fL
  Mono: 8.2%
  Neu: 13%
  PT: 12.1 s
  Plat: 115.4 x10_4/uL
  RBC: 596.8 x10_4/ul
  Ret: 9.2%
  WBC: 96.8 x10_2/uL
  KIDNEY_L: 1 g
  KIDNEY_R: 1 g
  KIDNEY_TOTAL: 2 g
  LIVER: 10.5 g
  A/G: 2.2
  ALP: 725.4 IU/L
  ALT: 37.6 IU/L
  AST: 66.2 IU/L
  BUN: 13.8 mg/dL
  CRE: 0.5 mg/dL
  Ca: 11 mg/dL
  Cl: 105.4 meq/L
  DBIL: 0.008 mg/dL
  GLC: 196.6 mg/dL
  IP: 10.2 mg/dL
  K: 4.8 meq/L
  LDH: 79.2 IU/L
  Na: 140.2 meq/L
  PL: 146 mg/dL
  RALB: 3.7 g/dL
  TBIL: 0.3 mg/dL
  TC: 77 mg/dL
  TG: 70.8 mg/dL
  TP: 5.3 g/dL
  gamma-GTP: 1.4 IU/L
[2]
  TERMINAL_BW: 212.8 g
  APTT: 16.4 s
  Bas: 0%
  Eos: 1%
  Fbg: 205.2 mg/dL
  Hb: 13.2 g/dL
  Ht: 39.9%
  Lym: 76.2%
  MCH: 21.6 pg
  MCHC: 33%
  MCV: 65.4 fL
  Mono: 6.4%
  Neu: 16.6%
  PT: 12.2 s
  Plat: 116.2 x10_4/uL
  RBC: 609.4 x10_4/ul
  Ret: 8.4%
  WBC: 118.4 x10_2/uL
  KIDNEY_L: 0.9 g
  KIDNEY_R: 0.9 g
  KIDNEY_TOTAL: 1.9 g
  LIVER: 9.5 g
  A/G: 2.2
  ALP: 837.6 IU/L
  ALT: 34.6 IU/L
  AST: 65.6 IU/L
  BUN: 9.8 mg/dL
  CRE: 0.5 mg/dL
  Ca: 10.8 mg/dL
  Cl: 105.2 meq/L
  DBIL: 0.022 mg/dL
  GLC: 198.6 mg/dL
  IP: 9.9 mg/dL
  K: 4.7 meq/L
  LDH: 74 IU/L
  Na: 139.4 meq/L
  PL: 130.6 mg/dL
  RALB: 3.7 g/dL
  TBIL: 0.4 mg/dL
  TC: 73 mg/dL
  TG: 46.8 mg/dL
  TP: 5.4 g/dL
  gamma-GTP: 1.6 IU/L
[3]
  TERMINAL_BW: 215 g
  APTT: 16.5 s
  Bas: 0%
  Eos: 1.2%
  Fbg: 215.4 mg/dL
  Hb: 13 g/dL
  Ht: 39.6%
  Lym: 81.4%
  MCH: 21.9 pg
  MCHC: 32.8%
  MCV: 66.8 fL
  Mono: 5%
  Neu: 12.8%
  PT: 11.7 s
  Plat: 112.2 x10_4/uL
  RBC: 593.2 x10_4/ul
  Ret: 8.7%
  WBC: 113.3 x10_2/uL
  KIDNEY_L: 1 g
  KIDNEY_R: 1 g
  KIDNEY_TOTAL: 1.9 g
  LIVER: 9.4 g
  A/G: 2.1
  ALP: 772.2 IU/L
  ALT: 31.2 IU/L
  AST: 60.8 IU/L
  BUN: 13.6 mg/dL
  CRE: 0.4 mg/dL
  Ca: 10.7 mg/dL
  Cl: 106.6 meq/L
  DBIL: 0.022 mg/dL
  GLC: 192.6 mg/dL
  IP: 10.1 mg/dL
  K: 4.8 meq/L
  LDH: 69.8 IU/L
  Na: 139 meq/L
  PL: 133.4 mg/dL
  RALB: 3.8 g/dL
  TBIL: 0.4 mg/dL
  TC: 69.6 mg/dL
  TG: 49.2 mg/dL
  TP: 5.5 g/dL
  gamma-GTP: 1.6 IU/L
[4]
  TERMINAL_BW: 230.9 g
  APTT: 16.3 s
  Bas: 0%
  Eos: 1.4%
  Fbg: 203.8 mg/dL
  Hb: 13.2 g/dL
  Ht: 39.8%
  Lym: 71.6%
  MCH: 21.6 pg
  MCHC: 33.1%
  MCV: 65.3 fL
  Mono: 8.2%
  Neu: 19%
  PT: 11.2 s
  Plat: 117.1 x10_4/uL
  RBC: 609.4 x10_4/ul
  Ret: 8.3%
  WBC: 114 x10_2/uL
  KIDNEY_L: 1.1 g
  KIDNEY_R: 1 g
  KIDNEY_TOTAL: 2.1 g
  LIVER: 11 g
  A/G: 2.4
  ALP: 834.2 IU/L
  ALT: 39.8 IU/L
  AST: 62.6 IU/L
  BUN: 18 mg/dL
  CRE: 0.5 mg/dL
  Ca: 10.9 mg/dL
  Cl: 106.4 meq/L
  DBIL: 0.012 mg/dL
  GLC: 198.8 mg/dL
  IP: 8.5 mg/dL
  K: 5.2 meq/L
  LDH: 86.4 IU/L
  Na: 141 meq/L
  PL: 155 mg/dL
  RALB: 3.9 g/dL
  TBIL: 0.4 mg/dL
  TC: 80 mg/dL
  TG: 84.6 mg/dL
  TP: 5.5 g/dL
  gamma-GTP: 1.2 IU/L
60 mg/kg, 3 h, dose level Low
  TERMINAL_BW: 218.9 g
  APTT: 15.9 s
  Bas: 0%
  Eos: 1%
  Fbg: 216 mg/dL
  Hb: 13.2 g/dL
  Ht: 40.3%
  Lym: 75.6%
  MCH: 21.3 pg
  MCHC: 32.8%
  MCV: 64.7 fL
  Mono: 9.4%
  Neu: 14%
  PT: 12 s
  Plat: 113.1 x10_4/uL
  RBC: 622.2 x10_4/ul
  Ret: 8.4%
  WBC: 113.3 x10_2/uL
  KIDNEY_L: 0.9 g
  KIDNEY_R: 0.9 g
  KIDNEY_TOTAL: 1.9 g
  LIVER: 10.3 g
  A/G: 1.9
  ALP: 851.2 IU/L
  ALT: 38.6 IU/L
  AST: 65.6 IU/L
  BUN: 18.2 mg/dL
  CRE: 0.5 mg/dL
  Ca: 11 mg/dL
  Cl: 106 meq/L
  DBIL: 0.018 mg/dL
  GLC: 203.8 mg/dL
  IP: 9.8 mg/dL
  K: 5.3 meq/L
  LDH: 85 IU/L
  Na: 138.8 meq/L
  PL: 142.2 mg/dL
  RALB: 3.4 g/dL
  TBIL: 0.3 mg/dL
  TC: 84 mg/dL
  TG: 52.2 mg/dL
  TP: 5.3 g/dL
  gamma-GTP: 1.8 IU/L
60 mg/kg, 6 h, dose level Low
  TERMINAL_BW: 221.6 g
  APTT: 15.7 s
  Bas: 0%
  Eos: 1%
  Fbg: 200 mg/dL
  Hb: 13.1 g/dL
  Ht: 39.2%
  Lym: 79.8%
  MCH: 21.7 pg
  MCHC: 33.3%
  MCV: 65.2 fL
  Mono: 5.2%
  Neu: 14.6%
  PT: 12 s
  Plat: 110.6 x10_4/uL
  RBC: 602.6 x10_4/ul
  Ret: 9.2%
  WBC: 122.1 x10_2/uL
  KIDNEY_L: 1 g
  KIDNEY_R: 1 g
  KIDNEY_TOTAL: 2 g
  LIVER: 9.9 g
  A/G: 2.2
  ALP: 728.2 IU/L
  ALT: 36.2 IU/L
  AST: 60.4 IU/L
  BUN: 22 mg/dL
  CRE: 0.5 mg/dL
  Ca: 11.1 mg/dL
  Cl: 104.8 meq/L
  DBIL: 0.054 mg/dL
  GLC: 196 mg/dL
  IP: 10.9 mg/dL
  K: 4.9 meq/L
  LDH: 85.2 IU/L
  Na: 139.4 meq/L
  PL: 136 mg/dL
  RALB: 3.6 g/dL
  TBIL: 0.5 mg/dL
  TC: 78.2 mg/dL
  TG: 44.4 mg/dL
  TP: 5.3 g/dL
  gamma-GTP: 1.4 IU/L
60 mg/kg, 9 h, dose level Low
  TERMINAL_BW: 216 g
  APTT: 16.1 s
  Bas: 0%
  Eos: 1.2%
  Fbg: 195 mg/dL
  Hb: 12.7 g/dL
  Ht: 39.1%
  Lym: 77%
  MCH: 21.6 pg
  MCHC: 32.6%
  MCV: 66.3 fL
  Mono: 4.4%
  Neu: 17%
  PT: 11.7 s
  Plat: 111.5 x10_4/uL
  RBC: 590 x10_4/ul
  Ret: 8.6%
  WBC: 87.4 x10_2/uL
  KIDNEY_L: 1 g
  KIDNEY_R: 1 g
  KIDNEY_TOTAL: 2 g
  LIVER: 9.2 g
  A/G: 1.9
  ALP: 839.6 IU/L
  ALT: 33.2 IU/L
  AST: 69 IU/L
  BUN: 20.2 mg/dL
  CRE: 0.4 mg/dL
  Ca: 10.6 mg/dL
  Cl: 107 meq/L
  DBIL: 0.02 mg/dL
  GLC: 193.4 mg/dL
  IP: 11 mg/dL
  K: 5.1 meq/L
  LDH: 89.4 IU/L
  Na: 138.4 meq/L
  PL: 122.2 mg/dL
  RALB: 3.5 g/dL
  TBIL: 0.4 mg/dL
  TC: 66.8 mg/dL
  TG: 57 mg/dL
  TP: 5.3 g/dL
  gamma-GTP: 1.6 IU/L
60 mg/kg, 24 h, dose level Low
  TERMINAL_BW: 228.5 g
  APTT: 16.3 s
  Bas: 0%
  Eos: 1.4%
  Fbg: 220 mg/dL
  Hb: 12.9 g/dL
  Ht: 39.1%
  Lym: 79.6%
  MCH: 21.5 pg
  MCHC: 33.2%
  MCV: 65 fL
  Mono: 5.4%
  Neu: 14%
  PT: 11 s
  Plat: 114.8 x10_4/uL
  RBC: 602.4 x10_4/ul
  Ret: 8.9%
  WBC: 88.3 x10_2/uL
  KIDNEY_L: 1 g
  KIDNEY_R: 1 g
  KIDNEY_TOTAL: 2.1 g
  LIVER: 11.3 g
  A/G: 2.1
  ALP: 986.4 IU/L
  ALT: 39.2 IU/L
  AST: 61.4 IU/L
  BUN: 16.8 mg/dL
  CRE: 0.5 mg/dL
  Ca: 11.1 mg/dL
  Cl: 104.6 meq/L
  DBIL: 0.006 mg/dL
  GLC: 202.4 mg/dL
  IP: 8.6 mg/dL
  K: 5.4 meq/L
  LDH: 110.4 IU/L
  Na: 138.6 meq/L
  PL: 157.2 mg/dL
  RALB: 3.9 g/dL
  TBIL: 0.4 mg/dL
  TC: 89.4 mg/dL
  TG: 94.6 mg/dL
  TP: 5.8 g/dL
  gamma-GTP: 1.8 IU/L
